Test results reported in patent US20180125068A1, “OCTANOIC, NONANOIC AND DECANOIC FATTY ACIDS WITH PYRETHROID ADULTICIDES” (priority 2016, published 2018).
Where two headings read alike, the source gives them in different places.

Experiments:
[1] = test system: Aedes aegypti resistant to permethrin (Key West strain); experiment: Wind tunnel bioassay, various pyrethroids (Example 7); format: in vivo; details: pyrethroid alone 0.5% A.I., C8910 0%, 24 hours post-spray, mean
Source text: This exposed 80 caged A. aegypti to the spray. Each test was replicated four times.

[2] = test system: Cimex lectularius resistant to deltamethrin (Lex8 strain); details: observed, d-Phenothrin 0.375% alone
Experimental: (§1) Synergy was calculated using Abbott's synergy equation described in Levy Y et al., The joint action of fungicides in mixtures: comparison of two methods for synergy calculation, Bulletin OEPP/EPPO Bulletin, 1986, 16, 651-657. Specifically, a ratio greater than 1.0 of observed to expected percent mortality for combinations of two pesticides is evidence of synergy. Expected % mortality was calculated using the formula % Cexp=A+B−[…] where A is percent mortality of A. aegypti exposed to C8, 9, 10, B is percent mortality of A. aegypti exposed to permethrin and Cexp is expected percent mortality of A. aegypti exposed to a combination of C8, 9, 10 and permethrin.
(§2) The actives were suspended in 1 milliliter oil-based ultra-low volume sprays and sprayed into the wind tunnel. This exposed 10 adult male beg bugs to the spray. Each test was replicated three times. 1, 2, 3 and 4-day mortality of the bed bugs was then observed.

[3] = test system: Cimex lectularius susceptible to insecticides (Harold Harlan strain); details: observed, d-Phenothrin 0.25% alone
Experimental: as §1, §2

[4] = test system: Aedes aegypti resistant to permethrin (Key West strain); details: observed, C8910 0%
Source text: (§3) In this bioassay, Aedes aegypti known to be resistant to permethrin (Key West strain) were exposed to C8, 9, 10 alone, permethrin alone, and combinations of C8, 9, 10 and permethrin at 1:5, 1:2, 1:1, 2:1 and 5:1 ratios in a standard wind tunnel bioassay. The actives were suspended in 1 milliliter oil-based ultra-low volume sprays and sprayed into the wind tunnel. This exposed 80 caged A. aegypti to the spray. Each test was replicated four times. Fifteen-minute, one-hour and twenty-four hour mortality of the resistant A. aegypti was then observed.
as §1

[5] = test system: pyrethroid resistant Aedes aegypti; experiment: CDC bottle bioassay, resistant strain; format: in vivo; details: bottle coated with diagnostic concentration, n=5
Experimental: (§4) The following bioassays were performed to determine how pyrethroid susceptible and pyrethroid resistant Aedes aegypti responded to exposure to permethrin and the fatty acids mixture, separately and combined. The standard Centers for Disease Control (“CDC”) bottle bioassay method was used. The testing was conducted at Centro Internacional de Entrenamiento e Investigaciones Médicas (“CIDEIM”) in Colombia with susceptible and resistant Aedes aegypti. The compounds were diluted in acetone, added to the bottles, and bottles were rolled to coat them internally until dry. Susceptible and resistant mosquitoes were exposed inside the treated bottles.
(§5) Bottle bioassays assess susceptibility by measuring time-to-death of mosquitoes exposed in bottles coated internally with a “diagnostic concentration” of the test compound.

[6] = test system: Aedes aegypti resistant and susceptible to permethrin; experiment: WHO wind tunnel bioassay (Example 4); format: in vivo; details: 24 hour mortality
Experimental: In this bioassay, the standard WHO wind tunnel bioassay was used by CIDEIM. Aedes aegypti that were known to be resistant and susceptible to permethrin were used in the studies. […] solutions were prepared with the following ratios of C8, 9, 10 fatty acids mixture to permethrin: 2:1 (0.67% C8910+0.33% permethrin); 1:1 (0.5% C8910+0.5% permethrin); and 1:2 (0.33% C8910+0.67% permethrin). A one percent permethrin formulation was tested as well as a C8, 9, 10 fatty acids mixture.
The solutions were diluted in acetone to 1%, 0.1%, 0.01%, 0.001%, 0.0001%, and 0.00001%. Then 0.5 ml of each dilution was sprayed into the wind tunnel. This exposed 20 caged mosquitos to the spray. Each test was replicated three times. The 24 hour mortality was then observed. This type of assay is desirable because it tests the compounds without being formulated.

[7] = test system: A. aegypti susceptible to permethrin (Benzon research strain); details: observed, C8910 0%
Source text: as §3, §1
In this assay, A. aegypti known to be susceptible to permethrin (Benzon research strain) were exposed to C8, 9, 10 alone, permethrin alone, and combinations of C8, 9, 10 and permethrin at 1:5, 1:2, 1:1, 2:1 and 5:1 ratios in a standard wind tunnel bioassay identical to that described above.

[8] = test system: pyrethroid susceptible Aedes aegypti; experiment: CDC bottle bioassay, susceptible strain; format: in vivo
Experimental: as §4, §5

[9] = susceptible strain, bottle coated with diagnostic concentration, n=5

CC(C)=C[C@@H]1[C@@H](C(=O)O[C@H](C#N)c2cccc(Oc3ccccc3)c2)C1(C)C (relative stereo) [d,d,trans-cyphenothrin, d,d,trans-Cyphenothrin]
% Mortality 24 hour [1]: 76%

CC1(C)C(C(=O)OC(C#N)c2cccc(Oc3ccccc3)c2)C1(C)C (centres unmarked) [Fenpropathrin]
mortality at 0.5 % strength ([1]; Aedes aegypti): 65%

CC(C)=CC1C(C(=O)OCc2cccc(Oc3ccccc3)c2)C1(C)C (stereo not drawn) [d-Phenothrin, Sumithrin (d-phenothrin)]
% Mortality ([2]; 1 day): 6.7%
% Mortality ([2]; 2 days): 10.0%
% Mortality ([3]; 1 day): 0.0%
% Mortality ([3]; 2 days): 0.0%
% Mortality ([3]; 3 days): 46.7%
% Mortality ([3]; 4 days): 56.7%

CC1(C)C(C=C(Cl)Cl)C1C(=O)OCc1cccc(Oc2ccccc2)c1 (centres unmarked) [Permethrin]
% Mortality ([4]; 15 min, Permethrin 1.6%): 28.1%
% Mortality ([4]; 15 min, Permethrin 4.0%): 34.4%
% Mortality ([4]; 1 hour, Permethrin 1.6%): 41.6%
% Mortality ([4]; 1 hour, Permethrin 4.0%): 49.4%
% Mortality ([4]; 24 hour, Permethrin 1.6%): 55.0%
% Mortality ([4]; 24 hour, Permethrin 4.0%): 63.4%
LT50 [5]: 73.5 min
LT99 [5]: 306.7 min
mortality rate of resistant compared with susceptible mosquitos [6]: lower mortality rates
% Mortality ([7]; 15 min, Permethrin 0.4%): 4.4%
% Mortality ([7]; 15 min, Permethrin 1.0%): 26.9%
% Mortality ([7]; 1 hour, Permethrin 0.4%): 34.1%
% Mortality ([7]; 1 hour, Permethrin 1.0%): 54.4%
% Mortality ([7]; 24 hour, Permethrin 0.4%): 42.5%
% Mortality ([7]; 24 hour, Permethrin 1.0%): 65.3%
mortality ([8]; susceptible mosquitos, at about 80 minutes, FIG. 1): ~100%
LT50 [8, 9]: 18.8 min
LT99 [8, 9]: 99.3 min
